“Also recorded” adds a separate entry of the source. Read-outs that look alike come from different tables or passages of the source.
Columns and labels:
[1] = in vivo; details: male, ICR, mouse, po; for Cmax / half-life: oral gavage; for half-life: t1/2, mouse
[2] = for Drug concentration, time course: normal mice, oral gavage, 3mg/kg
[3] = test system: diabetes mellitus patients; experiment: Acute kidney injury; assay type: in vivo, human; details: for Association with AKI, Unadjusted (95% CI) / Association with AKI, Adjusted (95% CI): metformin as reference; for Association with AKI, Adjusted (95% CI): multivariate; for Association with AKI compared to control drug metformin, in words: multivariate analysis; for Events During the 90 days (AKI): primary endpoint, first 90 days, patients above 55 years; for Events at secondary end (AKI): secondary endpoint, after 90 days of hospital admission; for Total Percent (incidence rate of AKI at the end of the study): share of the 4966 total outcomes; for Total endpoint (AKI events): primary plus secondary endpoint
[4] = Endpoint Diagnosis with 1047 Outcome
[5] = Secondary Diagnosis with 3919 Outcomes

Compound: CC(C)Cc1ccc(C(C)C(=O)O)cc1 (stereo not shown) [Ibuprofen, ibuprofen]
- Tmax [1]: 1 h
- Tmax ([1]; 3 mg/kg): 1 h
- Drug concentration, time course ([2]; Kidney, 0h): 0
- Drug concentration, time course ([2]; Kidney, 6h): 16,500
- Drug concentration, time course ([2]; Kidney, 9h): 9500
- Drug concentration, time course ([2]; Kidney, 12h): 3500
- Drug concentration, time course ([2]; Kidney, 15h): 1000
- Drug concentration, time course ([2]; Kidney, 18h): 200
- Drug concentration, time course ([2]; Kidney, 21h): 100
- Drug concentration, time course ([2]; Kidney, 24h): 0
- Drug concentration, time course ([2]; Liver, 0h): 0
- Drug concentration, time course ([2]; Liver, 3h): 9500
- Drug concentration, time course ([2]; Liver, 6h): 7600
- Drug concentration, time course ([2]; Liver, 9h): 1800
- Drug concentration, time course ([2]; Liver, 12h): 600
- Drug concentration, time course ([2]; Liver, 15h): 150
- Drug concentration, time course ([2]; Liver, 18h): 0
- Drug concentration, time course ([2]; Liver, 21h): 0
- Drug concentration, time course ([2]; Liver, 24h): 0
- Drug concentration, time course ([2]; Plasma, 0h): 0
- Drug concentration, time course ([2]; Plasma, 3h): 600
- Drug concentration, time course ([2]; Plasma, 6h): 400
- Drug concentration, time course ([2]; Plasma, 9h): 140
- Drug concentration, time course ([2]; Plasma, 12h): 0
- Drug concentration, time course ([2]; Plasma, 15h): 0
- Drug concentration, time course ([2]; Plasma, 18h): 0
- Drug concentration, time course ([2]; Plasma, 21h): 0
- Drug concentration, time course ([2]; Plasma, 24h): 0
- Association with AKI, Unadjusted (95% CI) [3, 4]: 3.14 (2.87–3.74)
- Association with AKI, Adjusted (95% CI) [3, 4]: 2.41 (1.91–2.54)
- Association with AKI, Unadjusted (95% CI) [3, 5]: 2.68 (2.21–3.03)
- Association with AKI, Adjusted (95% CI) [3, 5]: 2.36 (1.84–2.93)
- Association with AKI compared to control drug metformin, in words [3]: higher risk for AKI
- Association with AKI compared to control drug metformin, in words ([3]; listed as ibuprofen): increased rate of AKI
- Events During the 90 days (AKI) [3]: 124
- Events at secondary end (AKI) [3]: 433
- Total Percent (incidence rate of AKI at the end of the study) [3]: 11.22%

Compound: COc1ccc2c(c1)c(CC(=O)O)c(C)n2C(=O)c1ccc(Cl)cc1 [Indomethacin, indomethacin]
- Tmax ([1]; 3 mg/kg): 1 h
- Cmax ([1]; 3 mg/kg, Kidney): 10300 ng/mL
- Cmax ([1]; 3 mg/kg, Liver): 9650 ng/mL
- Cmax ([1]; 3 mg/kg, Plasma): 1170 ng/mL
- half-life ([1]; 3 mg/kg, Kidney): 3.8 h
- half-life ([1]; 3 mg/kg, Liver): 3.1 h
- half-life ([1]; 3 mg/kg, Plasma): 2.7 h
- Tmax determined from the drug concentration in kidney and plasma (and liver) ([2]; mouse, tissue not separated): 1 h
- Drug concentration, time course ([2]; Kidney, 0h): 0
- Drug concentration, time course ([2]; Kidney, 3h): 8240
- Drug concentration, time course ([2]; Kidney, 6h): 5200
- Drug concentration, time course ([2]; Kidney, 9h): 3880
- Drug concentration, time course ([2]; Kidney, 12h): 700
- Drug concentration, time course ([2]; Kidney, 15h): 250
- Drug concentration, time course ([2]; Kidney, 18h): 0
- Drug concentration, time course ([2]; Kidney, 21h): 0
- Drug concentration, time course ([2]; Kidney, 24h): 0
- Drug concentration, time course ([2]; Liver, 0h): 0
- Drug concentration, time course ([2]; Liver, 3h): 10,300
- Drug concentration, time course ([2]; Liver, 6h): 8700
- Drug concentration, time course ([2]; Liver, 9h): 5400
- Drug concentration, time course ([2]; Liver, 12h): 1200
- Drug concentration, time course ([2]; Liver, 15h): 150
- Drug concentration, time course ([2]; Liver, 18h): 0
- Drug concentration, time course ([2]; Liver, 21h): 0
- Drug concentration, time course ([2]; Liver, 24h): 0
- Drug concentration, time course ([2]; Plasma, 0h): 0
- Drug concentration, time course ([2]; Plasma, 3h): 300
- Drug concentration, time course ([2]; Plasma, 6h): 100
- Drug concentration, time course ([2]; Plasma, 9h): 50
- Drug concentration, time course ([2]; Plasma, 12h): 0
- Drug concentration, time course ([2]; Plasma, 15h): 0
- Drug concentration, time course ([2]; Plasma, 18h): 0
- Drug concentration, time course ([2]; Plasma, 21h): 0
- Drug concentration, time course ([2]; Plasma, 24h): 0
- Association with AKI, Unadjusted (95% CI) [3, 4]: 2.81 (2.32–2.94)
- Association with AKI, Adjusted (95% CI) [3, 4]: 2.29 (2.05–2.65)
- Association with AKI, Unadjusted (95% CI) [3, 5]: 2.45(2.09–2.54)
- Association with AKI, Adjusted (95% CI) [3, 5]: 2.63 (2.41–2.72)
- Association with AKI compared to control drug metformin, in words [3]: increased rate of AKI; also recorded: higher risk for AKI
- Events During the 90 days (AKI) [3]: 106
- Total endpoint (AKI events) [3]: 497
- Events at secondary end (AKI) [3]: 391
- Total Percent (incidence rate of AKI at the end of the study) [3]: 10.01%

Compound: OC[C@H]1O[C@@H](c2ccc(F)c(Cc3cc4ccccc4s3)c2)[C@H](O)[C@@H](O)[C@@H]1O [Ipragliflozin, ipragliflozin]
- Tmax [1]: 0.5 h
- Tmax ([1]; 3 mg/kg): 0.5 h
- Cmax ([1]; 3 mg/kg, Kidney): 4140 ng/mL
- Cmax ([1]; 3 mg/kg, Liver): 3040 ng/mL
- Cmax ([1]; 3 mg/kg, Plasma): 975 ng/mL
- half-life ([1]; 3 mg/kg, Kidney): 2.3 h
- half-life ([1]; 3 mg/kg, Liver): 1.5 h
- half-life ([1]; 3 mg/kg, Plasma): 1.6 h
- Drug concentration, time course ([2]; Kidney, 0h): 0
- Drug concentration, time course ([2]; Kidney, 3h): 16,700
- Drug concentration, time course ([2]; Kidney, 6h): 14,500
- Drug concentration, time course ([2]; Kidney, 9h): 8000
- Drug concentration, time course ([2]; Kidney, 12h): 4500
- Drug concentration, time course ([2]; Kidney, 15h): 3000
- Drug concentration, time course ([2]; Kidney, 18h): 1500
- Drug concentration, time course ([2]; Kidney, 21h): 1000
- Drug concentration, time course ([2]; Kidney, 24h): 850
- Drug concentration, time course ([2]; Liver, 0h): 0
- Drug concentration, time course ([2]; Liver, 3h): 7500
- Drug concentration, time course ([2]; Liver, 6h): 6000
- Drug concentration, time course ([2]; Liver, 9h): 1200
- Drug concentration, time course ([2]; Liver, 12h): 300
- Drug concentration, time course ([2]; Liver, 15h): 50
- Drug concentration, time course ([2]; Liver, 18h): 0
- Drug concentration, time course ([2]; Liver, 21h): 0
- Drug concentration, time course ([2]; Liver, 24h): 0
- Drug concentration, time course ([2]; Plasma, 0h): 0
- Drug concentration, time course ([2]; Plasma, 3h): 300
- Drug concentration, time course ([2]; Plasma, 6h): 250
- Drug concentration, time course ([2]; Plasma, 9h): 30
- Drug concentration, time course ([2]; Plasma, 12h): 0
- Drug concentration, time course ([2]; Plasma, 15h): 0
- Drug concentration, time course ([2]; Plasma, 18h): 0
- Drug concentration, time course ([2]; Plasma, 21h): 0
- Drug concentration, time course ([2]; Plasma, 24h): 0
- Association with AKI, Unadjusted (95% CI) [3, 4]: 0.78 (0.61–1.08)
- Association with AKI, Adjusted (95% CI) [3, 4]: 0.86 (0.69–1.31)
- Association with AKI, Unadjusted (95% CI) [3, 5]: 0.84 (0.69–1.16)
- Association with AKI, Adjusted (95% CI) [3, 5]: 0.95 (0.62–1.45)
- Events During the 90 days (AKI) [3]: 58
- Total endpoint (AKI events) [3]: 269
- Events at secondary end (AKI) [3]: 211
- Total Percent (incidence rate of AKI at the end of the study) [3]: 5.42%

Source: paper PMC8053501 (Diabetes, Metabolic Syndrome and Obesity: Targets and …, 2021)
